Assay results: patent US20240325398A1, “COMBINATION THERAPIES” (Infinity Pharmaceuticals, Inc., priority 2014, published 2024)

Assays:
KARPAS-422 = assay: Combination study, ATPLite 72 h, dose matrix (Synergy Score, CI50); settings: combination with Compound 1, 72 h
WSU-NHL = assay: as above; settings: combination with Compound 1, 72 h
Mino = assay: as above; settings: combination with Compound 1
Protocol: (§1) Cells are thawed from a liquid nitrogen preserved state. Once cells have been expanded and divide at their expected doubling times, screening begins. Cells are seeded in growth media in either black 1536-well or 384-well tissue culture treated plates. Cells are then equilibrated in assay plates via centrifugation and placed in incubators attached to the Dosing Modules at 37° C. for 24 hours before treatment. […] These Tzero (To) plates are read using ultra-sensitive luminescence on Envision plate readers (Perkin Elmer). Treated assay plates are incubated with compound for 72 hours. After 72 hours, plates are developed for endpoint analysis using ATPLite. All data points are collected via automated processes, quality controlled and analyzed using Zalicus software.
(§2) where T is treated cell count and V is untreated (vehicle) cell count (at 72 hours). I ranges from 0% (when T=V) to 100% (when T=0). […] The measure of effect in the experiment can be the inhibition of cellular response relative to the untreated level (vehicle alone). […] The inhibition ranges from 0% at the untreated level to 100% when T=0. Inhibition levels are negative for agents that actually increase levels. Other effect measures, such as an activity ratio r=T/V may be more appropriate for some assays. When activity ratios (e.g, fold increase over stimulated control) are being used, the effect can be measured using an induction 1=ln(T/V). With this definition, all effect expressions are the same as for inhibition.
(§3) Growth Inhibition (GI) is used as a measure of cell viability. […] A GI reading of 100% represents complete growth inhibition—T72 compound-treated and T0 vehicle signals are matched. […] A GI reading of 200% represents complete death of all cells in the culture well. Compounds reaching an activity plateau of GI 200% are considered cytotoxic. GI is calculated by applying the following test and equation:
(§4) Combination analysis data were collected in a 6×6 dose matrix. Synergy is calculated by comparing a combination's response to those of its single compound, against the drug-with-itself dose-additive reference model. Deviations from dose additivity may be assessed visually on an isobologram or numerically with a Combination Index (CI). […] Additive effect is CI=1.0. […] Antagonistic effect is CI>1.0.
(§5) To measure combination effects in excess of Loewe additivity, a scalar measure to characterize the strength of synergistic interaction termed the Synergy Score is devised. The Synergy Score is calculated as:
(§6) The fractional inhibition for each component agent and combination point in the matrix is calculated relative to the median of all vehicle-treated control wells. The Synergy Score equation integrates the experimentally-observed activity volume at each point in the matrix in excess of a model surface numerically derived from the activity of the component agents using the Loewe model for additivity. Additional terms in the Synergy Score equation (above) are used to normalize for various dilution factors used for individual agents and to allow for comparison of synergy scores across an entire experiment. The inclusion of positive inhibition gating or an Idata multiplier removes noise near the zero effect level, and biases results for synergistic interactions at that occur at high activity levels.
(§7) Loewe Volume (Loewe Vol) is used to assess the overall magnitude of the combination interaction in excess of the Loewe additivity model. Loewe Volume is particularly useful when distinguishing synergistic increases in a phenotypic activity (positive Loewe Volume) versus synergistic antagonisms (negative Loewe Volume). […] This model defines additivity as a non-synergistic combination interaction where the combination dose matrix surface should be indistinguishable from either drug crossed with itself.

SU-DHL-10-epst = assay: as above; settings: combination with Compound 1, 72 h
RPMI-8226 = assay: as above; settings: combination with Compound 1
Protocol: as §1, §2, §3, §4, §5, §6, §7

U-2932 = assay: as above; settings: combination with Compound 1, 72 h
Protocol: as §1, §2, §3, §4, §5, §6
Loewe Volume (Loewe Vol) is used to assess the overall magnitude of the combination interaction in excess of the Loewe additivity model. Loewe Volume is particularly useful when distinguishing synergistic increases in a phenotypic activity (positive Loewe Volume) versus synergistic antagonisms (negative Loewe Volume). […] This model defines additivity as a non-synergistic combination interaction where the combination dose matrix surface should be indistinguishable from either drug crossed with itself. The calculation for Loewe additivity is:

Jeko-1 = assay: as above; settings: combination with Compound 1
HH = assay: as above; format: cell-based; settings: combination with Compound 1
Protocol: The method is described as follows.
Additive effect is CI=1.0. […] Antagonistic effect is CI>1.0.
The Synergy Score is calculated as: […]

SU-DHL-4-epst = assay: as above; settings: combination with Compound 1, 72 h
OCI-Ly7 = assay: as above; settings: combination with Compound 1, 72 h
TMD8 = assay: as above; settings: combination with Compound 1; TMD8; 72 h
GRANTA-519 = assay: as above; settings: combination with Compound 1
Protocol: as §1, §2, §3, §4, §5, §6, §7

KARPAS-299 = assay: as above; settings: combination with Compound 1
Protocol: as §1, §2, §3, §4, §5, §6, §7

DOHH-2 = assay: as above; settings: combination with Compound 1, 72 h
[1] = as above; settings: combination with Compound 1; OPM-2
Protocol: as §1, §2, §3, §4, §5, §6, §7

OMP-2 = assay: as above; settings: combination with Compound 1; OPM-2
Protocol: as §1, §2, §3, §4, §5, §6, §7

OCI-Ly3 = assay: as above; settings: combination with Compound 1; OCI-Ly3; 72 h
Farage = assay: as above; settings: combination with Compound 1; Farage; 72 h
NCI-H929 = assay: as above; settings: combination with Compound 1
HBL-1 = assay: as above; settings: combination with Compound 1, 72 h
RL = assay: as above; settings: combination with Compound 1, 72 h

Structure (SMILES): CN1CCc2c(c3ccccc3n2Cc2ccc(C(=O)NO)cc2)C1.Cl [Tubastatin A hydrochloride]
- Synergy Score growth inhibition (KARPAS-422): A1 (A1=0.0001 to <1)
- Synergy Score inhibition (KARPAS-422): A1 (A1=0.0001 to <1)
- CI50 growth inhibition (WSU-NHL): T (T=0.5 to <0.7)
- CI50 inhibition (WSU-NHL): T (T=0.5 to <0.7)
- Synergy Score growth inhibition (WSU-NHL): A3 (A3=>3)
- Synergy Score inhibition (WSU-NHL): A2 (A2=1 to <3)
- CI50 growth inhibition (Mino): U (U=0.7 to <1)
- CI50 inhibition (Mino): U (U=0.7 to <1)
- Synergy Score growth inhibition (Mino): A2 (A2=1 to <3)
- Synergy Score inhibition (Mino): A1 (A1=0.0001 to <1)
- CI50 growth inhibition (SU-DHL-10-epst): T (T=0.5 to <0.7)
- CI50 inhibition (SU-DHL-10-epst): T (T=0.5 to <0.7)
- Synergy Score growth inhibition (SU-DHL-10-epst): A3 (A3=>3)
- Synergy Score inhibition (SU-DHL-10-epst): A2 (A2=1 to <3)
- CI50 growth inhibition (RPMI-8226): U (U=0.7 to <1)
- CI50 inhibition (RPMI-8226): U (U=0.7 to <1)
- Synergy Score growth inhibition (RPMI-8226): A2 (A2=1 to <3)
- Synergy Score inhibition (RPMI-8226): A1 (A1=0.0001 to <1)
- CI50 growth inhibition (U-2932): U (U=0.7 to <1)
- Synergy Score growth inhibition (U-2932): A1 (A1=0.0001 to <1)
- Synergy Score inhibition (U-2932): A1 (A1=0.0001 to <1)
- CI50 growth inhibition (Jeko-1): W (W=≥1)
- CI50 inhibition (Jeko-1): W (W=≥1)
- Synergy Score growth inhibition (Jeko-1): A1 (A1=0.0001 to <1)
- Synergy Score inhibition (Jeko-1): A1 (A1=0.0001 to <1)
- CI50 growth inhibition (HH): S (S=0.01 to <0.5)
- CI50 inhibition (HH): T (T=0.5 to <0.7)
- Synergy Score growth inhibition (HH): A3 (A3=>3)
- Synergy Score inhibition (HH): A2 (A2=1 to <3)
- CI50 growth inhibition (SU-DHL-4-epst): T (T=0.5 to <0.7)
- CI50 inhibition (SU-DHL-4-epst): S (S=0.01 to <0.5)
- Synergy Score growth inhibition (SU-DHL-4-epst): A3 (A3=>3)
- Synergy Score inhibition (SU-DHL-4-epst): A2 (A2=1 to <3)
- CI50 growth inhibition (OCI-Ly7): S (S=0.01 to <0.5)
- CI50 inhibition (OCI-Ly7): U (U=0.7 to <1)
- Synergy Score growth inhibition (OCI-Ly7): A3 (A3=>3)
- Synergy Score inhibition (OCI-Ly7): A2 (A2=1 to <3)
- CI50 growth inhibition (TMD8): U (U=0.7 to <1)
- CI50 inhibition (TMD8): U (U=0.7 to <1)
- Synergy Score growth inhibition (TMD8): A3 (A3=>3)
- Synergy Score inhibition (TMD8): A2 (A2=1 to <3)
- CI50 growth inhibition (GRANTA-519): S (S=0.01 to <0.5)
- CI50 inhibition (GRANTA-519): W (W=≥1)
- Synergy Score growth inhibition (GRANTA-519): A2 (A2=1 to <3)
- Synergy Score inhibition (GRANTA-519): A1 (A1=0.0001 to <1)
- Synergy Score growth inhibition (KARPAS-299): A1 (A1=0.0001 to <1)
- Synergy Score inhibition (KARPAS-299): A1 (A1=0.0001 to <1)
- CI50 growth inhibition (DOHH-2): T (T=0.5 to <0.7)
- CI50 inhibition (DOHH-2): T (T=0.5 to <0.7)
- Synergy Score growth inhibition (DOHH-2): A3 (A3=>3)
- Synergy Score inhibition (DOHH-2): A2 (A2=1 to <3)
- CI50 growth inhibition [1]: W (W=≥1)
- Synergy Score growth inhibition (OMP-2): A1 (A1=0.0001 to <1)
- Synergy Score inhibition (OMP-2): A1 (A1=0.0001 to <1)
- CI50 growth inhibition (OCI-Ly3): U (U=0.7 to <1)
- CI50 inhibition (OCI-Ly3): W (W=≥1)
- Synergy Score growth inhibition (OCI-Ly3): A2 (A2=1 to <3)
- Synergy Score inhibition (OCI-Ly3): A1 (A1=0.0001 to <1)
- CI50 growth inhibition (Farage): S (S=0.01 to <0.5)
- CI50 inhibition (Farage): T (T=0.5 to <0.7)
- Synergy Score growth inhibition (Farage): A3 (A3=>3)
- Synergy Score inhibition (Farage): A2 (A2=1 to <3)
- CI50 growth inhibition (NCI-H929): U (U=0.7 to <1)
- CI50 inhibition (NCI-H929): T (T=0.5 to <0.7)
- Synergy Score growth inhibition (NCI-H929): A3 (A3=>3)
- Synergy Score inhibition (NCI-H929): A2 (A2=1 to <3)
- CI50 growth inhibition (HBL-1): U (U=0.7 to <1)
- CI50 inhibition (HBL-1): W (W=≥1)
- Synergy Score growth inhibition (HBL-1): A2 (A2=1 to <3)
- Synergy Score inhibition (HBL-1): A1 (A1=0.0001 to <1)
- CI50 growth inhibition (RL): W (W=≥1)
- CI50 inhibition (RL): W (W=≥1)
- Synergy Score growth inhibition (RL): A2 (A2=1 to <3)
- Synergy Score inhibition (RL): A2 (A2=1 to <3)
